Reference: ChEMBL document CHEMBL5360622, “Leucettinibs, a Class of DYRK/CLK Kinase Inhibitors Inspired by the Marine Sponge Natural Product Leucettamine B” (J Med Chem, 2023)

Experiments:
[1] = molecular target: Casein kinase II subunit alpha (Homo sapiens) (UniProt P68400); details: dose 10.0 µM
[2] = molecular target: Dual specificity tyrosine-phosphorylation-regulated kinase 2 (Homo sapiens) (UniProt Q92630); details: dose 10.0 µM
[3] = molecular target: Serine/threonine-protein kinase haspin (Homo sapiens) (UniProt Q8TF76); details: dose 10.0 µM
[4] = molecular target: T1, Mitogen-activated protein kinase 15 (Homo sapiens) (UniProt Q8TD08); details: dose 10.0 µM
T1 sequence (whole entry): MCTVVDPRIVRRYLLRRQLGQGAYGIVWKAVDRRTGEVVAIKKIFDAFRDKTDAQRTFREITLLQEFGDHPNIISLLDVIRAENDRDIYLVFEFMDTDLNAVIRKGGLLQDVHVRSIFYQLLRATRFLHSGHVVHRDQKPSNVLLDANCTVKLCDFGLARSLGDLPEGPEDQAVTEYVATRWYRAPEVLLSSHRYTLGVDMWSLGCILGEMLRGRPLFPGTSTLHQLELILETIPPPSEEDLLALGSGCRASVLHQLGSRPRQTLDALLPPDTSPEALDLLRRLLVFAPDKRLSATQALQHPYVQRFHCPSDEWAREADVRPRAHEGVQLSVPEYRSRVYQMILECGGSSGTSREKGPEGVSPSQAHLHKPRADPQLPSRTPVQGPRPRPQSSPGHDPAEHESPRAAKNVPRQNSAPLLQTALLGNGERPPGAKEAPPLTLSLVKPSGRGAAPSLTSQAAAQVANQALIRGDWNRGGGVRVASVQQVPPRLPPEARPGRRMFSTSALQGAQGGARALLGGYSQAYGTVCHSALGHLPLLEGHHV

[5] = molecular target: Glycogen synthase kinase-3 beta (Homo sapiens, UniProt P49841); type: cell-based, Sf9
[6] = molecular target: Dual specificity protein kinase CLK1 (Homo sapiens, UniProt P49759); type: cell-based, Sf9
Dual specificity protein kinase CLK1, sequence (P49759 whole entry): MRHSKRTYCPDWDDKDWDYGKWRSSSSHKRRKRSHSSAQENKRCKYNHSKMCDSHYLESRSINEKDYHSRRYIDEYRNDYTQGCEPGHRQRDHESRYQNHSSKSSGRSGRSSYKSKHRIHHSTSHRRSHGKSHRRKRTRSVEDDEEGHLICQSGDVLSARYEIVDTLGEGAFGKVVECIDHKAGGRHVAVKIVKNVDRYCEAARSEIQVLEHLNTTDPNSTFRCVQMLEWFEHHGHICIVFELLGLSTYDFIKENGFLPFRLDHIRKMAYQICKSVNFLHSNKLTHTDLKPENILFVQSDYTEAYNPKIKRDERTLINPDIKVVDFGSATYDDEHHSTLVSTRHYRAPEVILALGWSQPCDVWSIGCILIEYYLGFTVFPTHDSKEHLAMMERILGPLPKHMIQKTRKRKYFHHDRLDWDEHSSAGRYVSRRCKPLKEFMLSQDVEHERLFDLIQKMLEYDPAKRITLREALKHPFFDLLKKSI

Glycogen synthase kinase-3 beta, sequence (P49841 whole entry): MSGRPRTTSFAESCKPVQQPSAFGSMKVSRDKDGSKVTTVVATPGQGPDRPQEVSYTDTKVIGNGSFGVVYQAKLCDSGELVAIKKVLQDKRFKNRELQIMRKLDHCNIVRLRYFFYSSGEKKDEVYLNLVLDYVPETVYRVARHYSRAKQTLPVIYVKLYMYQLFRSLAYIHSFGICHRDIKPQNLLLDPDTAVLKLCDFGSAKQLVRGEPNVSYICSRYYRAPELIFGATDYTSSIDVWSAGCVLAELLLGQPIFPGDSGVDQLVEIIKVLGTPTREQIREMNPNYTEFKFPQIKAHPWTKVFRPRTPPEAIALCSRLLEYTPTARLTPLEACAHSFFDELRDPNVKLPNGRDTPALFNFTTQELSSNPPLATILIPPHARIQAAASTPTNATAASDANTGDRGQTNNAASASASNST
Serine/threonine-protein kinase haspin (Homo sapiens), sequence (Q8TF76 whole entry): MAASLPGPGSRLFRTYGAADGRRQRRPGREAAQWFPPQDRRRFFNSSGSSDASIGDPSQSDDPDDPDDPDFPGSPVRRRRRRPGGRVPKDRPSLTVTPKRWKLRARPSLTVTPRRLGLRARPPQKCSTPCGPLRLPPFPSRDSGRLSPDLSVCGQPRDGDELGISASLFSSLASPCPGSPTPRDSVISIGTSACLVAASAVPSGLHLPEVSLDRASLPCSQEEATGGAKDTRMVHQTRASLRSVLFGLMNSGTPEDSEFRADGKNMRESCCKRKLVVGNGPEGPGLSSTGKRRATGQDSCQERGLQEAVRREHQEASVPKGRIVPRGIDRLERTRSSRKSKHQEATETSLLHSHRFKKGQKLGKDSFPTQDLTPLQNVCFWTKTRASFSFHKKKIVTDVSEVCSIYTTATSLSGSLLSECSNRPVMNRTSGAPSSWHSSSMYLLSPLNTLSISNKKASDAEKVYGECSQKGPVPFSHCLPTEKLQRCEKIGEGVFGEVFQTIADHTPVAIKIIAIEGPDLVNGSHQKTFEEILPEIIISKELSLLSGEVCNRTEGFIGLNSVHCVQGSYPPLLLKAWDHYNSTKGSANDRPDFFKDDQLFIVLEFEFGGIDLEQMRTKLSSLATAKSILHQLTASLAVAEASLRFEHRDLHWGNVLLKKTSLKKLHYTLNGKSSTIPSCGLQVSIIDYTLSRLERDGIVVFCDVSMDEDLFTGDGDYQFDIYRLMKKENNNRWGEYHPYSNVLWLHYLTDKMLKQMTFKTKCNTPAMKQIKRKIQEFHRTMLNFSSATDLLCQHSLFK
Dual specificity tyrosine-phosphorylation-regulated kinase 2 (Homo sapiens), sequence (Q92630 whole entry): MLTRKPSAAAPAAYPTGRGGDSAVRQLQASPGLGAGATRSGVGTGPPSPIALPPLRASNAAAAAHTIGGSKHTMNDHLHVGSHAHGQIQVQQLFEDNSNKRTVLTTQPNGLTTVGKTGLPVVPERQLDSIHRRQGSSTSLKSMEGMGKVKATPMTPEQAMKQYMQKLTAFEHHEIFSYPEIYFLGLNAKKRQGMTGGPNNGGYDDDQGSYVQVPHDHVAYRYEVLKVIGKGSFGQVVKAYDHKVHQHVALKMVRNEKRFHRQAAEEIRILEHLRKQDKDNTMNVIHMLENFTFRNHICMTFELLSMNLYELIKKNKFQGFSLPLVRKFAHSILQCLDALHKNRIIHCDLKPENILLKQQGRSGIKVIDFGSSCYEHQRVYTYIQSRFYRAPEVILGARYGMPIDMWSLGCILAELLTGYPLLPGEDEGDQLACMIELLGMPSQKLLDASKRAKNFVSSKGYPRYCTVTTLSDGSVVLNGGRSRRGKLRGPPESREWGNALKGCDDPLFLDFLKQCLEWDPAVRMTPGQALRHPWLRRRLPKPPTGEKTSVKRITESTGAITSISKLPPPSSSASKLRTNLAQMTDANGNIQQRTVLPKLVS
Casein kinase II subunit alpha (Homo sapiens), sequence (P68400 whole entry, looked up): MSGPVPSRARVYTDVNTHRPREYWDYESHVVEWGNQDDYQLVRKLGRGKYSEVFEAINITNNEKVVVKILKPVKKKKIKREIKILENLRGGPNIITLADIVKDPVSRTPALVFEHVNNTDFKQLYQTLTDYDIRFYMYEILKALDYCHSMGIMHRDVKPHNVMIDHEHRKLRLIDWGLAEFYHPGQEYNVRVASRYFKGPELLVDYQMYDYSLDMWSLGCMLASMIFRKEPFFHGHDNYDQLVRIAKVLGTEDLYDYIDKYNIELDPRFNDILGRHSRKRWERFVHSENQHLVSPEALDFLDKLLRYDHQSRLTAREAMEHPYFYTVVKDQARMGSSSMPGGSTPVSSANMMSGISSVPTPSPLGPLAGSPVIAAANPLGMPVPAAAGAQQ

O=C1NC(NC23CC4CC(CC(C4)C2)C3)=N/C1=C\c1ccc2scnc2c1
ΔTm [1]: 0.3 °C | ΔTm [2]: 0 °C | ΔTm [3]: -0.1 °C | ΔTm [4]: -0.2 °C | IC50 [5]: > 10 µM | IC50 [6]: 8.96 µM
